Measured values as given in PubChem BioAssay (NCI).
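Where inhibition never reached the appropriate level, the endpoint shown equals the highest concentration tested. Otherwise, values were interpolated linearly from a five-concentration, 48-hour dose response in 96-well plates. The concentration for 50% growth inhibition is given as GI50. Definition used: TGI = concentration required for complete inhibition of growth.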

How the values were obtained:
Assay in all cases: NCI tumour cell line growth inhibition, 48 h
[1] = tested on: K-562 leukemia
[2] = tested on: OVCAR-4 ovarian
[3] = tested on: NCI-H226 lung
[4] = tested on: NCI-H522 lung
[5] = tested on: T-47D breast
[6] = tested on: HCT-116 colon
[7] = tested on: EKVX NSCLC
[8] = tested on: RPMI-8226 leukemia
[9] = tested on: CAKI-1 renal

Structure (SMILES) | GI50 [1] | TGI [1] | GI50 [2] | TGI [2] | GI50 [3] | TGI [3] | GI50 [4] | TGI [4] | GI50 [5] | TGI [5] | GI50 [6] | TGI [6] | GI50 [7] | TGI [7] | GI50 [8] | TGI [8] | GI50 [9] | TGI [9]
Cc1ccc(C(=O)NC(C)C)cc1-c1ccc(C(=O)NCC2CC2)cc1 | > 25 µM | > 25 µM | > 25 µM | > 25 µM | > 25 µM | > 25 µM | > 25 µM | > 25 µM | 16.5 µM | > 25 µM | > 25 µM | > 25 µM | > 25 µM | > 25 µM | > 25 µM | > 25 µM | > 25 µM | > 25 µM
O=C1Nc2ccccc2C1(c1ccc(O)cc1)c1ccc(O)cc1 | 29.2 µM | > 100 µM | 0.103 µM | 0.961 µM | 12.8 µM | 59.7 µM | 17.2 µM | 43.4 µM | 0.0474 µM | 0.245 µM | 14.5 µM | 31.6 µM | 14.5 µM | 90 µM | 25.8 µM | 70.9 µM | 22.7 µM | 81.3 µM
O=C1c2cccc([N+](=O)[O-])c2C(=O)N1c1ncn[nH]1 | – | > 100 µM | – | > 100 µM | – | > 100 µM | – | > 100 µM | – | > 100 µM | – | > 100 µM | – | > 100 µM | – | > 100 µM | – | > 100 µM
CC1CN1C(=O)NCCCCCCNC(=O)N1CC1C (stereo not given) | – | > 100 µM | – | > 100 µM | – | > 100 µM | – | > 100 µM | – | > 100 µM | – | > 100 µM | – | > 100 µM | – | > 100 µM | – | > 100 µM
CS(=O)(=O)CCNCc1ccc(-c2ccc3ncnc(Nc4ccc(OCc5ccccc5)cc4)c3c2)o1 | 9.27 µM | > 25 µM | 11.1 µM | > 25 µM | 13.2 µM | > 25 µM | 3.32 µM | 10.4 µM | 4.01 µM | > 25 µM | 5.99 µM | > 17 µM | 0.371 µM | 24.7 µM | 5.38 µM | > 16.8 µM | 2.04 µM | > 25 µM
Nc1nc2c(nnn2C2CC(O)C(CO)O2)c(=O)[nH]1 (stereo not given) | 4.04 µM | > 100 µM | 11.5 µM | > 100 µM | 8.75 µM | > 100 µM | 3.81 µM | > 100 µM | 4.59 µM | > 65.1 µM | 5.89 µM | > 100 µM | 93.5 µM | > 100 µM | 2.65 µM | > 100 µM | 2.3 µM | > 100 µM
CC1(C)OC2=C(CC1Br)C(=O)C(=O)c1ccccc12 (stereo not given) | 2.23 µM | 4.89 µM | 1.67 µM | 3.03 µM | 1.7 µM | 3.12 µM | 1.62 µM | 3.03 µM | 2.03 µM | 4.72 µM | 1.7 µM | 3.41 µM | 1.71 µM | 3.47 µM | 2.65 µM | 6.82 µM | 1.66 µM | 3.15 µM
O=C(O)C(=Cc1ccc(-c2ccccc2)cc1)C(=O)O | – | 36.9 µM | – | 41.2 µM | – | 48.4 µM | – | 22.8 µM | – | 34 µM | – | 24.7 µM | – | > 100 µM | – | 20.6 µM | – | 30 µM
O=S(=O)(NC1=NCCN1C(=S)SN1CCn2c1nsc2=S)c1cccc(Cl)c1 | 13.4 µM | > 100 µM | 22.2 µM | 54.6 µM | 19 µM | 55.7 µM | 5.58 µM | 18.4 µM | 6.81 µM | 25.7 µM | 13.2 µM | 28.1 µM | 38.7 µM | > 100 µM | 5.05 µM | > 100 µM | 6.24 µM | 23.5 µM
